Measurements from the NIST ThermoML archive (doi:10.1021/acs.jced.6b00350).
Values joined by “and” are separate entries in the source; they are usually repeats but may differ in a detail not shown here. Identical values can stand only once.

Settings: Liquid, Hot wire method

FC(F)CC(F)(F)F [1,1,1,3,3-pentafluoropropane]
Settings | thermal conductivity
201.86 K, 21419 kPa | 0.124 W/m/K
201.86 K, 21433 kPa | 0.1239 W/m/K
201.87 K, 27158 kPa | 0.1248 W/m/K
202.1 K, 4763 kPa | 0.1206 W/m/K
202.12 K, 10088 kPa | 0.1217 W/m/K
202.12 K, 10097 kPa | 0.1218 W/m/K
202.15 K, 15804 kPa | 0.1229 W/m/K
202.15 K, 15839 kPa | 0.1229 W/m/K
202.2 K, 267 kPa | 0.1193 W/m/K
202.2 K, 275 kPa | 0.1195 W/m/K
202.2 K, 21408 kPa | 0.1237 W/m/K
202.2 K, 21420 kPa | 0.1237 W/m/K
202.21 K, 27161 kPa | 0.1249 W/m/K
202.23 K, 27677 kPa | 0.1252 W/m/K
202.24 K, 27673 kPa | 0.1255 W/m/K
202.24 K, 33666 kPa | 0.1267 W/m/K
202.24 K, 33675 kPa | 0.1266 W/m/K
202.26 K, 40147 kPa | 0.1279 W/m/K
202.26 K, 40151 kPa | 0.1278 W/m/K
202.27 K, 46773 kPa | 0.129 W/m/K
202.27 K, 46779 kPa | 0.1291 W/m/K
202.27 K, 53774 kPa | 0.1304 W/m/K
202.28 K, 53774 kPa | 0.1304 W/m/K
202.28 K, 60672 kPa | 0.1313 W/m/K
202.28 K, 60684 kPa | 0.1319 W/m/K
202.29 K, 67566 kPa | 0.1328 W/m/K
202.29 K, 67588 kPa | 0.1327 W/m/K
202.48 K, 4763 kPa | 0.1205 W/m/K
202.49 K, 10097 kPa | 0.1216 W/m/K
202.49 K, 10103 kPa | 0.1216 W/m/K
202.52 K, 15780 kPa | 0.1229 W/m/K
202.52 K, 15825 kPa | 0.1229 W/m/K
202.57 K, 21412 kPa | 0.1238 W/m/K
202.57 K, 21416 kPa | 0.1237 W/m/K
202.57 K, 27164 kPa | 0.1249 W/m/K
202.58 K, 275 kPa | 0.1195 W/m/K
202.58 K, 288 kPa | 0.1194 W/m/K
202.59 K, 27679 kPa | 0.1253 W/m/K
202.59 K, 27683 kPa | 0.1253 W/m/K
202.59 K, 33679 kPa | 0.1264 W/m/K
202.6 K, 33675 kPa | 0.1265 W/m/K
202.61 K, 40142 kPa | 0.1278 W/m/K
202.62 K, 40147 kPa | 0.1278 W/m/K
202.62 K, 46778 kPa | 0.129 W/m/K
202.62 K, 46780 kPa | 0.1289 W/m/K
202.62 K, 53770 kPa | 0.1302 W/m/K and 0.1303 W/m/K
202.63 K, 60672 kPa | 0.1318 W/m/K
202.63 K, 60673 kPa | 0.1317 W/m/K
202.63 K, 67539 kPa | 0.1325 W/m/K
202.63 K, 67552 kPa | 0.1327 W/m/K
202.89 K, 4767 kPa | 0.1203 W/m/K
202.89 K, 4772 kPa | 0.1204 W/m/K
202.9 K, 10110 kPa | 0.1216 W/m/K
202.92 K, 15810 kPa | 0.1227 W/m/K
202.92 K, 15863 kPa | 0.1227 W/m/K
202.97 K, 21416 kPa | 0.1236 W/m/K
202.97 K, 21421 kPa | 0.1236 W/m/K
202.97 K, 27152 kPa | 0.1247 W/m/K
202.97 K, 27157 kPa | 0.1247 W/m/K
202.98 K, 27682 kPa | 0.1253 W/m/K
202.98 K, 33690 kPa | 0.1266 W/m/K
202.99 K, 306 kPa | 0.1193 W/m/K
202.99 K, 337 kPa | 0.1194 W/m/K
202.99 K, 27679 kPa | 0.1252 W/m/K
202.99 K, 33685 kPa | 0.1265 W/m/K
203 K, 40148 kPa | 0.1278 W/m/K
203 K, 46783 kPa | 0.1289 W/m/K and 0.129 W/m/K
203 K, 53771 kPa | 0.1302 W/m/K
203 K, 53775 kPa | 0.1301 W/m/K
203 K, 60661 kPa | 0.1314 W/m/K
203 K, 60670 kPa | 0.1314 W/m/K
203 K, 67499 kPa | 0.1327 W/m/K
203 K, 67521 kPa | 0.1326 W/m/K
203.01 K, 40146 kPa | 0.1276 W/m/K
203.32 K, 4769 kPa | 0.1202 W/m/K
203.32 K, 4775 kPa | 0.1202 W/m/K
203.33 K, 10125 kPa | 0.1214 W/m/K
203.33 K, 10131 kPa | 0.1214 W/m/K
203.34 K, 15898 kPa | 0.1226 W/m/K
203.35 K, 15840 kPa | 0.1227 W/m/K
203.39 K, 27154 kPa | 0.1246 W/m/K
203.39 K, 27157 kPa | 0.1243 W/m/K
203.4 K, 21419 kPa | 0.1235 W/m/K
203.4 K, 33699 kPa | 0.1263 W/m/K
203.4 K, 67478 kPa | 0.1323 W/m/K
203.41 K, 27689 kPa | 0.1252 W/m/K
203.41 K, 33685 kPa | 0.1264 W/m/K
203.41 K, 46771 kPa | 0.1289 W/m/K
203.41 K, 46773 kPa | 0.1287 W/m/K
203.41 K, 53771 kPa | 0.1302 W/m/K
203.41 K, 53772 kPa | 0.1301 W/m/K
203.41 K, 60658 kPa | 0.1313 W/m/K
203.41 K, 60664 kPa | 0.1315 W/m/K
203.41 K, 67491 kPa | 0.1325 W/m/K
203.42 K, 40141 kPa | 0.1277 W/m/K
203.42 K, 40147 kPa | 0.1276 W/m/K
203.43 K, 372 kPa | 0.119 W/m/K
203.43 K, 393 kPa | 0.1193 W/m/K
203.83 K, 67450 kPa | 0.1325 W/m/K
203.83 K, 67465 kPa | 0.1324 W/m/K
203.84 K, 53769 kPa | 0.13 W/m/K
203.84 K, 60649 kPa | 0.1313 W/m/K and 0.1311 W/m/K
203.85 K, 27696 kPa | 0.1251 W/m/K
203.85 K, 33690 kPa | 0.1263 W/m/K
203.85 K, 33700 kPa | 0.1263 W/m/K
203.85 K, 46765 kPa | 0.1288 W/m/K
203.85 K, 46774 kPa | 0.1288 W/m/K
203.85 K, 53757 kPa | 0.13 W/m/K
203.86 K, 27682 kPa | 0.125 W/m/K
203.86 K, 40135 kPa | 0.1275 W/m/K
203.86 K, 40141 kPa | 0.1276 W/m/K
221.72 K, 250 kPa | 0.1129 W/m/K
221.72 K, 251 kPa | 0.113 W/m/K
221.73 K, 4830 kPa | 0.1143 W/m/K
221.73 K, 4854 kPa | 0.1145 W/m/K
221.74 K, 10031 kPa | 0.1155 W/m/K
221.75 K, 10011 kPa | 0.1159 W/m/K
221.76 K, 15754 kPa | 0.1169 W/m/K
221.76 K, 15760 kPa | 0.1169 W/m/K
221.77 K, 21259 kPa | 0.1183 W/m/K
221.77 K, 21264 kPa | 0.1188 W/m/K
221.78 K, 27420 kPa | 0.1202 W/m/K
221.78 K, 27443 kPa | 0.1204 W/m/K
222 K, 39755 kPa | 0.1236 W/m/K
222 K, 39756 kPa | 0.1236 W/m/K
222 K, 47190 kPa | 0.1252 W/m/K
222.01 K, 47202 kPa | 0.1258 W/m/K
222.01 K, 54322 kPa | 0.1269 W/m/K
222.01 K, 54323 kPa | 0.1269 W/m/K
222.02 K, 61325 kPa | 0.1285 W/m/K
222.02 K, 61363 kPa | 0.1286 W/m/K
222.02 K, 67941 kPa | 0.1302 W/m/K
222.02 K, 67960 kPa | 0.13 W/m/K
222.09 K, 253 kPa | 0.1125 W/m/K
222.09 K, 4859 kPa | 0.1139 W/m/K
222.09 K, 4863 kPa | 0.1139 W/m/K
222.1 K, 247 kPa | 0.1124 W/m/K
222.11 K, 10038 kPa | 0.1155 W/m/K
